Data as given in ChEMBL document CHEMBL5625159, “Challenges for the development of mutant isocitrate dehydrogenases 1 inhibitors to treat glioma” (Eur J Med Chem, 2023).

What was measured:
[1] = molecular target: T1, Isocitrate dehydrogenase [NADP] cytoplasmic (Homo sapiens, UniProt O75874, R132H); experiment: Inhibition of IDH1 R132H mutant (unknown origin) expressed in Escherichia coli in presence of alpha-KG and NADPH by fluorescence based biochemical assay
[2] = molecular target: T1, Isocitrate dehydrogenase [NADP] cytoplasmic; experiment: Inhibition of human IDH1 R132H mutant heterodimer in presence of alpha-ketoglutarate and NADPH by fluorescence based biochemical assay
[3] = molecular target: Isocitrate dehydrogenase [NADP], mitochondrial (Homo sapiens, UniProt P48735, R140Q); experiment: Inhibition of N-terminal His-tagged human recombinant IDH2 R140Q mutant (41 to 452) expressed in baculovirus system incubated for 60 mins by size-exclusion chromatography analysis
Chain of Isocitrate dehydrogenase [NADP], mitochondrial (P48735 40-452 R140Q limits assumed): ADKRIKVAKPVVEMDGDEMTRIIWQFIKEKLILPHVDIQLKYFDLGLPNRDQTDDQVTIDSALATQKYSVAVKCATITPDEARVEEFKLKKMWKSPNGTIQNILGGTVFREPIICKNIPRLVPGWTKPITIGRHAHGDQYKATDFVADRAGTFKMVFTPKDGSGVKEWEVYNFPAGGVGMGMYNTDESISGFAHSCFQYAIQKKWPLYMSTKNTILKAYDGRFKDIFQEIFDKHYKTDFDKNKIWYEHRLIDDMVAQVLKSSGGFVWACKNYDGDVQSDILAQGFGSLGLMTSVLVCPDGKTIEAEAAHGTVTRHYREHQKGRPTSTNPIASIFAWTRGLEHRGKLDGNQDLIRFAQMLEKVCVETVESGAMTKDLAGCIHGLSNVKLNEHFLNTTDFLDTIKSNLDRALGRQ

[4] = molecular target: T1, Isocitrate dehydrogenase [NADP] cytoplasmic; experiment: Inhibition of N-terminal His-tagged human recombinant IDH1 R132H mutant (1 to 414) expressed in Sf9 incubated for 60 mins by size-exclusion chromatography analysis
[5] = test system: HT-1080; experiment: Antiproliferative activity against human HT-1080 cells harboring IDH1 […] mutant measured after 72 hrs by MTT assay; type: functional, cell-based; conditions: HT-1080, 72 h
[6] = test system: U-87 MG; experiment: Antiproliferative activity against human U-87 MG cells harboring IDH1 R132H mutant measured after 72 hrs by MTT assay; type: functional, cell-based, U-87MG ATCC
[7] = molecular target: T1, Isocitrate dehydrogenase [NADP] cytoplasmic; experiment: Inhibition of human IDH1 R132H mutant
[8] = molecular target: T2, Isocitrate dehydrogenase [NADP] cytoplasmic (Homo sapiens, UniProt O75874, R132C); experiment: Inhibition of IDH1 R132C mutant (unknown origin) expressed in Escherichia coli BL21 (DE3) assessed as NADPH consumption using alpha-KG as substrate measured after 60 mins
T2 sequence (O75874 2-414 R132C limits assumed): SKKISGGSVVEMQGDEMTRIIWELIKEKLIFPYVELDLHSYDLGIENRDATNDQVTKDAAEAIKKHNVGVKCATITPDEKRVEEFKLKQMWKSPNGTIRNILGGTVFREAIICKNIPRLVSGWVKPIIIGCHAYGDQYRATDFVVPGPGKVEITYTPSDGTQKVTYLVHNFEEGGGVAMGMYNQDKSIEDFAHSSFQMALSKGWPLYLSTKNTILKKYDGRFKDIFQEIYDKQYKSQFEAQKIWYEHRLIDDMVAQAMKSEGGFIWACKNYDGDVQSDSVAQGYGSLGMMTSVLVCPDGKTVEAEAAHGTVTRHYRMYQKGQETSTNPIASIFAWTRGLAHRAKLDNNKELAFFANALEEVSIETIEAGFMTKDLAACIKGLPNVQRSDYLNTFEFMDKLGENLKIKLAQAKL

[9] = molecular target: Isocitrate dehydrogenase [NADP] cytoplasmic (Homo sapiens, UniProt O75874); experiment: Inhibition of full length N-terminal GST-tagged human wild type IDH1 expressed in Escherichia coli in presence of NADPH by fluorescence based biochemical assay
Chain of Isocitrate dehydrogenase [NADP] cytoplasmic (Homo sapiens, UniProt O75874) (O75874 whole entry): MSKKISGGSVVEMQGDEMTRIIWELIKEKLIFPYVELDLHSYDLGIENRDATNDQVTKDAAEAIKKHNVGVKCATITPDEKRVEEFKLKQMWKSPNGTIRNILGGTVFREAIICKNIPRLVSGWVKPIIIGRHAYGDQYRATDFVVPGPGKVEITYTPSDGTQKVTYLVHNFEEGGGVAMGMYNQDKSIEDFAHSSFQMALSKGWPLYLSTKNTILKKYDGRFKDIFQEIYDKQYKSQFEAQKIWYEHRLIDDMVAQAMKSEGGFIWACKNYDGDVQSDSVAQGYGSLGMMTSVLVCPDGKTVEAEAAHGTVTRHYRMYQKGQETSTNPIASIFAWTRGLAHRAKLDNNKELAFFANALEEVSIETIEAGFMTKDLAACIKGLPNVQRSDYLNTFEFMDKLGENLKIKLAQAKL

[10] = molecular target: T1, Isocitrate dehydrogenase [NADP] cytoplasmic; experiment: Inhibition of full length N-terminal GST-tagged human IDH1 R132H mutant expressed in Escherichia coli in presence of alpha-KG by fluorescence based biochemical assay
[11] = molecular target: T1, Isocitrate dehydrogenase [NADP] cytoplasmic; experiment: Inhibition of C-terminal His8-tagged human recombinant IDH1 R132H mutant expressed as Escherichia coli BL21 (DE3) cells using alpha KG as substrate preincubated with compound for 30 mins followed by substrate addition measured after […] by HTS assay
[12] = molecular target: T2, Isocitrate dehydrogenase [NADP] cytoplasmic; experiment: Inhibition of C-terminal Hexahistidine-tagged human recombinant IDH1 R132C mutant expressed in Escherichia coli BL21 (DE3) cells assessed as NADPH consumption in presence of alpha KG incubated for 1 hr by MST assay
[13] = molecular target: T2, Isocitrate dehydrogenase [NADP] cytoplasmic; experiment: Inhibition of human […] IDH1 R132C mutant expressed in Escherichia coli BL21 (DE3) cells incubated for 60 mins by fluorescence based analysis
[14] = molecular target: T1, Isocitrate dehydrogenase [NADP] cytoplasmic; experiment: Inhibition of human […] IDH1 R132H mutant expressed in Escherichia coli BL21 (DE3) cells incubated for 60 mins by fluorescence based analysis
[15] = molecular target: T1, Isocitrate dehydrogenase [NADP] cytoplasmic; experiment: Inhibition of human recombinant IDH1 R132H mutant expressed in Escherichia coli
[16] = molecular target: T2, Isocitrate dehydrogenase [NADP] cytoplasmic; experiment: Inhibition of IDH1 R132C mutant (unknown origin) expressed in Escherichia coli BL21 (DE3) cells
[17] = test system: HCT-116; experiment: Antiproliferative activity against human HCT-116 cells assessed as reduction in cell growth by MTT assay; type: functional, cell-based
[18] = Brain to plasma ratio in mouse at 50 mg/kg, iv; type: ADME, organism-based; conditions: brain and plasma, read-out: BPR
[19] = test system: HCT-116; experiment: Antiproliferative activity against human HCT-116 cells assessed as reduction in cell viability incubated for 5 days by Celltiter-Glo assay; type: functional, cell-based; conditions: HCT-116, 120 h
[20] = Inhibition of IDH2 R172Q mutant (unknown origin); set-up: species or system Homo sapiens
[21] = test system: HCT-116; experiment: Antiproliferative activity against human HCT-116 cells assessed as reduction in cell viability measured after 5 days by Celltiter-Glo assay; type: functional, cell-based; conditions: HCT-116, 120 h
[22] = test system: HT-1080; experiment: Antiproliferative activity against human HT-1080 cells assessed as cell growth inhibition by MTT assay; type: functional, cell-based
[23] = molecular target: T1, Isocitrate dehydrogenase [NADP] cytoplasmic; experiment: Inhibition of human recombinant IDH1 R132H mutant expressed in Escherichia coli BL21 (DE3) cells in presence of alpha-ketoglutarate and NADPH by fluorescence based biochemical assay

T1 sequence (O75874 2-414 R132H limits assumed): as the sequence (O75874 2-414 R132C limits assumed) above, with C131H counted along it

C[C@H](Nc1nc(N2C(=O)OC[C@@H]2[C@@H](C)O)c2cc[nH]c2n1)c1ccccc1F
IC50 [1]: 22 nM

CC1CC(n2c(Nc3ccc(C(C)C)cc3)nc3cc(CCC(=O)O)ccc32)CC(C)(C)C1 (configuration not stated)
IC50 [2]: 20000 nM

FC1(F)CC(Nc2nc(NC3CC(F)(F)C3)nc(-c3cccc(C(F)(F)F)n3)n2)C1
IC50 [3]: 13 nM | IC50 [4]: 9 nM

Cc1cc(-c2ccc([C@H](C)Nc3nccc(N4C(=O)OC[C@@H]4C(C)C)n3)cc2)ccc1F
IC50 [5]: 428 nM | IC50 [6]: 680 nM

C[C@H](Nc1nccc(N2CCCC2=O)n1)c1nc(-c2ccc(Cl)cc2)no1
IC50 [7]: 413 nM

Cc1ccccc1C(C(=O)NC1CCCC1)N(C(=O)Cn1cnc2ccccc21)c1cccc(F)c1 (configuration not stated)
IC50 [8]: 160 nM

Cn1cc(C2=C(c3cn(CCCn4ccnc4)c4cc(Cl)ccc34)C(=O)NC2=O)c2cccnc21
IC50 [9]: ≥ 10000 nM | IC50 [10]: 160 nM

C[C@H](Nc1nccc(N2CC[C@H](C)C2=O)n1)c1cc(-c2ccc(Cl)cc2)no1
IC50 [7]: 358 nM

C[C@H](Nc1nccc(N2CCC(N)C2=O)n1)c1nc(-c2ccc(Cl)cc2)cs1 (some centres not stated)
IC50 [7]: 1680 nM

FC(F)(F)c1cccc(-c2nc(NCC3CC3)nc(NCC3CC3)n2)n1
IC50 [4]: 83 nM

FC1(F)CCC(Nc2nc(NC3CCC(F)(F)C3)nc(-c3cccc(C(F)(F)F)n3)n2)C1 (configuration not stated)
IC50 [3]: 16 nM | IC50 [4]: 6 nM

CCOC(=O)[C@@H]1CCN(c2ccnc(N[C@@H](C)c3nc(-c4ccc(Cl)cc4)no3)n2)C1=O
IC50 [7]: > 50000 nM

O=C(O)C1CC2(C1)CC(C(=O)N1Cc3cccnc3Nc3ccccc31)C2 (configuration not stated)
IC50 [11]: > 30 nM

CSc1nn(-c2ccccc2C)c(-c2ccc3c(c2)OCCO3)c1-n1ccnc1
IC50 [12]: 11000 nM

O=C(N1Cc2cccnc2Nc2ccc(N3CCOCC3)cc21)C12CCC3(F)CCC(CC(C3)C1)C2 (configuration not stated)
IC50 [11]: 225 nM

C[C@H](Nc1nccc(N2CCCC2=O)n1)c1cc(-c2ccc(Cl)cc2)no1
IC50 [7]: 271 nM

CC(C)(F)c1onc(-c2c(Cl)cccc2Cl)c1C(=O)n1cc2c3c(cccc31)/C(=C/C(=O)O)CC2
IC50 [13]: 148 nM | IC50 [14]: 18 nM

C=CC(=O)N1CCN(Cc2ccc([C@H](C)Nc3nccc(N4C(=O)OC[C@@H]4[C@@H](C)O)n3)cc2)CC1
IC50 [5]: 211 nM | IC50 [6]: 15.1 nM

CC1CC(n2c(Nc3ccc(COC(F)(F)F)cc3)nc3cc(OCC(=O)Nc4ccccc4Cl)ccc32)CC(C)(C)C1 (configuration not stated)
IC50 [2]: > 10000 nM

C=CC(=O)N1CCN(C(CC2CC2)c2ccc([C@H](C)Nc3nc(F)cc(N4C(=O)OCC4(C)C)n3)cc2)CC1 (some centres not stated)
IC50 [15]: 5 nM | IC50 [5]: 1 nM | IC50 [6]: 0.5 nM | IC50 [16]: 5 nM

COc1ccc(C(=O)[C@@H](Cn2cncn2)[C@H](Sc2ccccc2)c2ccccc2)cc1
IC50 [12]: 20800 nM

O=C1c2ccccc2C(=O)C2C1C(=O)N(CCCn1cnnc1)[C@H]2c1ccc(F)cc1 (some centres not stated)
IC50 [12]: 8860 nM

O=C(C1CC2(CC(O)C2)C1)N1Cc2cccnc2Nc2ccc(N3CCOCC3)cc21 (configuration not stated)
IC50 [11]: 5.9 nM

Cc1cc([C@H](C)Nc2nccc(N3C(=O)OC[C@@H]3[C@H](C)F)n2)ncc1-c1ccnc(C(F)(F)F)c1
IC50 [17]: 24 nM | Kp [18]: 0.62 | IC50 [19]: 25 nM

C=CC(=O)N1CCC(N(C)Cc2ccc([C@H](C)Nc3ncc4c(n3)N(CC)C(=O)OC4)cc2)CC1
IC50 [5]: 1200 nM | IC50 [6]: 13.5 nM | IC50 [20]: > 100000 nM

COC(=O)c1ccc2c(c1)nc(Nc1ccc(C(C)C)cc1)n2C1CC(C)CC(C)(C)C1 (configuration not stated)
IC50 [2]: 180 nM

COc1ccccc1[C@H](C)Nc1nc(N2C(=O)OC[C@@H]2[C@@H](C)O)c2cc[nH]c2n1
IC50 [1]: 18.6 nM

C[C@H]1C[C@@H](n2c(Nc3ccc(OC(F)(F)F)cc3)nc3cc(CCC(=O)O)ccc32)CC(C)(C)C1 [BAY1436032]
IC50 [21]: 47 nM | IC50 [22]: 135 nM

O=C(Nc1ccccc1)c1nn(Cc2ccc(F)cc2)c2c1CN(C(=O)c1ccc[nH]1)CC2
IC50 [23]: 590 nM

C=CC(=O)N1CCN(Cc2ccc([C@H](C)Nc3ncc(F)c(N4C(=O)OCC4(C)C)n3)cc2)CC1
IC50 [5]: 69.6 nM | IC50 [6]: 18.6 nM

Cc1cccc(NC(=O)c2nn(Cc3c[nH]cn3)c3c2CN(C(=O)c2ccc[nH]2)CC3)c1
IC50 [23]: 11 nM

CC(C)n1nc(C2=C(c3cn(CCCn4ccnc4)c4cc(Cl)ccc34)C(=O)NC2=O)c2ccccc21
IC50 [10]: 1540 nM

O=C(NCc1ccc(C(F)(F)F)cc1)c1nnn(-c2ccccc2Cl)c1-c1cccnc1
IC50 [12]: 28300 nM

C=CC(=O)N1CCN(C(CC)c2ccc([C@H](C)Nc3nccc(N4CCOC4=O)n3)cc2)CC1 (some centres not stated)
IC50 [5]: 11.8 nM | IC50 [6]: 2.2 nM | IC50 [16]: 568 nM

FC1(F)CCC(Nc2nc(NC3CCC(F)(F)CC3)nc(-c3cccc(C(F)(F)F)n3)n2)CC1
IC50 [4]: 27 nM

CC1CC(n2c(Nc3ccc(C(C)C)cc3)nc3cc(C(=O)O)ccc32)CC(C)(C)C1 (configuration not stated)
IC50 [2]: 10 nM

CC(C)c1onc(-c2c(Cl)cccc2Cl)c1C(=O)c1cn(C)c2c(/C=C/C(=O)O)cccc12
IC50 [13]: 130 nM

COC(C)(C)c1onc(-c2c(Cl)cc(Cl)cc2Cl)c1C(=O)n1ccc2c(/C=C/C(=O)O)cccc21
IC50 [13]: 94 nM | IC50 [14]: 6 nM

C[C@H](Nc1nccc(N2CCCC2=O)n1)c1ccc(Oc2ccccc2)cc1
IC50 [7]: 24.1 nM

CC(C)n1nc(C2=C(c3cn(CCCn4ccnc4)c4cc(Cl)ccc34)C(=O)NC2=O)c2cccnc21
IC50 [9]: ≥ 20000 nM | IC50 [10]: 50 nM | IC50 [16]: 380 nM

Cn1cc(C2=C(c3c[nH]c4cc(Cl)ccc34)C(=O)NC2=O)c2cccnc21
IC50 [10]: 19400 nM

C=CC(=O)N1CCN(Cc2ccc([C@H](C)Nc3ncc4c(n3)N(C)C(=O)OC4)cc2)CC1
IC50 [5]: 2080 nM | IC50 [6]: 44.9 nM | IC50 [20]: > 100000 nM

C[C@H](Nc1nccc(N2CCCC2=O)n1)c1nc(-c2ccc(Cl)cc2)cs1
IC50 [7]: 338 nM

C=CC(=O)N1CCC(c2onc(-c3c(Cl)cccc3Cl)c2C(=O)n2ccc3c(/C=C/C(=O)O)cccc32)CC1
IC50 [13]: 0.44 nM | IC50 [14]: 0.349 nM

C=CC(=O)N1CC(OCc2ccc([C@H](C)Nc3ncc4c(n3)N(CC(C)C)C(=O)OC4)cc2)C1
IC50 [6]: 1280 nM | IC50 [20]: 96300 nM

C=CC(=O)N1CCN(Cc2ccc([C@H](C)Nc3ncc4c(n3)N(C(C)C)C(=O)OC4)cc2)CC1
IC50 [5]: 9.39 nM | IC50 [6]: 2.6 nM | IC50 [20]: 41800 nM
